Assay results as given in ChEMBL document CHEMBL5029167, “Development of Asialoglycoprotein-Mediated Hepatocyte-Targeting Antitumor Prodrugs Triggered by Glutathione” (J Med Chem, 2021).
Active and inactive are the calls of the source. No cut-off for these calls is given here.

Assays:
[1] = Prodrug release at pH 7.4 assessed as stability after 48 hrs in absence of GSH by LC-MS analysis; format: ADME; settings: pH 7.4, 48 h
[2] = Prodrug release at pH 6.5 assessed as stability after 120 mins in presence of GSH by LC-MS analysis; format: ADME; settings: pH 6.5, 2 h
[3] = test system: H22; experiment: Antitumor activity against mouse H22 cells implanted in Kunming mouse assessed as tumor growth inhibition at 10 mg/kg measured on day 7 by H and E staining based histopathological analysis; format: functional, organism-based; settings: time 7.0 day
[4] = Prodrug release at pH 6.5 assessed as stability after 48 hrs in absence of GSH by LC-MS analysis; format: ADME; settings: pH 6.5, 48 h
[5] = Drug uptake in human HepG2 cells at 10 uM after 15 mins by confocal scanning microscopic analysis; format: ADME, cell-based; settings: hepg2, 0.25 h
[6] = Drug uptake in human HeLa cells at 10 uM after 15 mins by confocal scanning microscopic analysis; format: ADME, cell-based; settings: 0.25 h
[7] = Toxicity in Kunming mouse assessed as change in body weight at 50 mg/kg; format: organism-based; settings: in vivo
[8] = test system: HepG2; experiment: Cytotoxicity against human HepG2 cells at 10 to 80 uM after 24 hrs; format: cell-based; settings: hepg2, 24 h, dose 10-80 µM
[9] = Drug uptake in human HepG2 cells pretreated with galactose for 30 mins followed by compound addition and measured after 15 mins by confocal scanning microscopic analysis; format: ADME, cell-based; settings: hepg2, 0.75 h, time 45 min
[10] = test system: H22; experiment: Antitumor activity against mouse H22 cells implanted in Kunming mouse assessed as tumor growth inhibition at 10 mg/kg measured on day 7; format: functional; set-up: scale not given: the % may be the effect or the level left; settings: time 7 day
[11] = Toxicity in Kunming mouse implanted with mouse H22 cells assessed as change in organ weight at 10 mg/kg after 7 days; format: organism-based; settings: in vivo, 168 h, time 7 day
[12] = Drug distribution in Kunming mouse liver at 10 mg/kg, iv measured after 3 hrs by confocal scanning microscopic analysis; format: ADME, organism-based; settings: in vivo
[13] = Prodrug release assessed as stability after 24 hrs in presence of NADH by LC-MS analysis; format: ADME
[14] = Drug uptake in human A549 cells at 10 uM after 15 mins by confocal scanning microscopic analysis; format: ADME, cell-based; settings: a549, 0.25 h
[15] = Drug uptake in human SGC-7901 cells at 10 uM after 15 mins by confocal scanning microscopic analysis; format: ADME, cell-based; settings: sgc-7901, 0.25 h
[16] = Toxicity in Kunming mouse implanted with mouse H22 cells assessed as change in body weight at 10 mg/kg after 7 days; format: organism-based; settings: in vivo, 168 h, time 7 day
[17] = Toxicity in Kunming mouse assessed as change in organ weight at 50 mg/kg; format: organism-based; settings: in vivo
[18] = Toxicity in Kunming mouse implanted with mouse H22 cells assessed as change in organ weight at 0.8 mg/kg after 7 days; format: organism-based; settings: in vivo, 168 h, time 7 day
[19] = test system: H22; experiment: Antitumor activity against mouse H22 cells implanted in Kunming mouse assessed as tumor growth inhibition at 0.8 mg/kg measured on day 7; format: functional; set-up: scale not given: the % may be the effect or the level left; settings: time 7 day
[20] = Toxicity in Kunming mouse implanted with mouse H22 cells assessed as change in body weight at 0.8 mg/kg after 7 days; format: organism-based; settings: in vivo, 168 h, time 7 day
[21] = Stability of compound in GSH measured upto 24 hrs; format: physicochemical; settings: GSH (glutathione), read-out: Stability

Q: For `C=C[C@]1(C)CC[C@@H](C(=C)Cn2cc(CN3C(=O)c4cccc5c(N6CCN(C(=O)OCCSSCCOCC(=O)NC(COCc7cn([C@@H]8O[C@H](CO)[C@H](O)[C@H](O)[C@H]8O)nn7)(COCc7cn([C@@H]8O[C@H](CO)[C@H](O)[C@H](O)[C@H]8O)nn7)COCc7cn([C@@H]8O[C@H](CO)[C@H](O)[C@H](O)[C@H]8O)nn7)CC6)ccc(c45)C3=O)nn2)C[C@H]1C(=C)C`, which Stability [1] is on record?
A: Its Stability is “Stable”.

Q: What about the Stability [2] of the same compound?
A: Its Stability is “Unstable”.

Q: And the Activity [3]?
A: Its Activity is “Active”.

Q: What about the Stability [4] of the same compound?
A: Its Stability is “Stable”.

Q: And the Drug uptake [5]?
A: Its Drug uptake is “Active”.

Q: What about the Drug uptake [6] of the same compound?
A: Its Drug uptake is “Active”.

Q: And the Activity [7]?
A: Its Activity is “Non-Toxic”.

Q: And the Activity [8]?
A: The Activity was “Non-Toxic”.

Q: What about the Drug uptake [9] of the same compound?
A: Its Drug uptake is “Not Active”.

Q: And the Activity [10]?
A: Its Activity is 51.22%.

Q: What about the Activity [11] of the same compound?
A: The Activity was “Non-Toxic”.

Q: And the Drug uptake [12]?
A: The Drug uptake was “Active”.

Q: And the Stability [13]?
A: The Stability was 98.9%.

Q: And the Drug uptake [14]?
A: The Drug uptake was “Active”.

Q: And the Drug uptake [15]?
A: The Drug uptake was “Active”.

Q: And the Activity [16]?
A: Its Activity is “Non-Toxic”.

Q: And the Activity [17]?
A: The Activity was “Non-Toxic”.

Q: With `O=c1[nH]cc(F)c(=O)[nH]1` [FLUOROURACIL] as the compound, how does the Activity [18] read?
A: Its Activity is “Non-Toxic”.

Q: And the Activity [19]?
A: The Activity was 26.41%.

Q: And the Activity [20]?
A: The Activity was “Non-Toxic”.

Q: With `C=C[C@]1(C)CC[C@@H](C(=C)Cn2cc(CN3C(=O)c4cccc5c(N6CCN(C(=O)OCCCCCCOCc7cn([C@@H]8O[C@H](CO)[C@H](O)[C@H](O)[C@H]8O)nn7)CC6)ccc(c45)C3=O)nn2)C[C@H]1C(=C)C` as the compound, how does the remaining at 24 h [21] read?
A: The remaining at 24 h was 99%.
